Measurements taken from article PMC6964649, “Light-controllable dithienylethene-modified cyclic peptides: photoswitching the in vivo toxicity in zebrafish embryos” (Beilstein Journal of Organic Chemistry, 2020).
“And” between values parts separate entries of the source, which are not always exact repeats. Identical values can stand only once. Marks after values point to notes of the source that are not given here. Starred links: 1 amine or outer side, 2 acyl side, 3 side chain; linkers in the order of their positions; H or OH if unused. Positions of bridges follow the written chain, without caps; N, C: chain ends. Non-standard residues stand in square brackets, D forms with d. Residues, ends and D or L forms follow the SMILES beside them. *: point of attachment. X2 = Cc1sc(C(=O)[C@@H]2CCCN2[*:2])cc1C1=C(c2cc(C(=O)[*:1])sc2C)CCC1; Leu(3R-OH) = CC(C)[C@@H](O)[C@H](N)C(=O)O; NMeL = CN[C@@H](CC(C)C)C(=O)O; Isobutyryl = CC(C)C(=O)*; Orn = NCCC[C@H](N)C(=O)O; Dab = NCC[C@H](N)C(=O)O; NHiPr = CC(C)N*

Tests used:
D. rerio embryos [1] = test: D. rerio embryotoxicity assay, direct application of ring-open photoform; format: in vivo, Danio rerio; details: direct application of 1 or ring-open photoform, zebrafish embryos at 3 dpf, final DMSO 0.2%, ambient light, value ± STD; for LD50 (open)^1h: 1 h incubation, 12–15 or 18–20 embryos; for LD50 (open)^3h: 3 h incubation; for LD50 (open)^24h: 24 h incubation
Procedure: (§1) To establish the assay for screening the photoswitchable peptides, we first studied the toxicity of our prototype 2 by varying the assay conditions. The parent peptide GS 1 was used as a control. […] We measured the doses causing the death of 50% embryos (LD50). We tested two different assay variations: in one version, the LD50(open) was determined after direct application of 1 or of the ring-open form of 2. In the other variant, the photoswitchable peptide was applied in the ring-closed photoform in the darkness, its LD50(closed) was recorded, and then in situ illumination (“photoactivation”) was applied to switch into the ring-open photoform and obtain the respective LD50(opened) values (see Figure 2 for the study design and the killing curves).
(§2) Figure 2 Two versions of the D. rerio embryotoxicity assay for DAE-modified peptides: timelines, peptide photostates, ages of larvae, and definitions of the measured characteristics. (A) Direct application of the non-photoswitchable parent GS 1 or of the ring-open photoform of our prototype 2, and the corresponding killing curves for 1 (C, top, black) and 2 (C, bottom, red). (B) “Photoactivation” assay: initial application of the ring-closed photoform, incubation in darkness, followed by in situ photoconversion into the ring-open(ed) photoform, with the corresponding killing curves for 1 (D, top) and 2 (D, bottom, green for ring-closed, red for ring-open isomers). The latter panel illustrates the “phototherapeutic safety window” (green arrow) as the difference in toxicity between the ring-closed and the ring-open isomers upon photoactivation.
(§3) Each time, 12–15 or 18–20 zebrafish embryos at 3 dpf were treated by applying the corresponding peptide dissolved in dimethyl sulfoxide (final dimethyl sulfoxide concentration was 0.2%). Double-concentrated peptide stock solutions (64–512 µg/mL) were prepared by weighing lyophilized peptides, dissolving in 10% dimethyl sulfoxide and constructing two-fold dilution series with ten–eleven dilution steps. In the photoconversion experiments, in order to prevent spontaneous photoswitching of the ring-closed peptides by vis light, zebrafish embryos and peptides were kept in the dark before the first readout, and the vials were sealed to avoid evaporation of the embryonic medium (E3) at prolonged incubation times. After the first screen, without exchanging any solution, the vials with embryos and ring-closed photoforms were exposed to intense illumination for 10 min (LUMATEC Superlite 410 light source, λ = 570 nm, irradiance approximately 20 mW/cm^2). Mortality was then determined under ambient light conditions at 1 h and 24 h after the illumination procedure.

D. rerio embryos [2] = test: D. rerio embryotoxicity "photoactivation" assay (ring-closed photoform in darkness, then in situ photoconversion); format: in vivo, Danio rerio; details: for LD50 (opened)^1h / LD50 (opened)^24h: after 24 h with ring-closed form in dark, in situ illumination 10 min, λ = 570 nm, approx. 20 mW/cm^2; for LD50 (opened)^1h: mortality 1 h after illumination, embryos 4 dpf; for LD50 (opened)^24h: mortality 24 h after illumination, embryos 5 dpf at readout; for LD50(closed)^24h/LD50(open)^24h ratio: phototherapeutic safety window, ring-closed 24 h LD50 (dark) divided by ring-open 24 h LD50 (direct application); for LD50 (closed)^24h: ring-closed photoform applied to embryos at 3 dpf, 24 h in the dark
Procedure: as §1, §2, §3

[3] = sealed vials, E3 medium, 0.2% DMSO, value ± STD

SMILES	LD50 (open)^1h (D. rerio embryos [1]) [µg/mL]	LD50 (open)^3h (D. rerio embryos [1]) [µg/mL]	LD50 (open)^24h (D. rerio embryos [1]) [µg/mL]	LD50 (opened)^1h (D. rerio embryos [2]; value ± STD) [µg/mL]	LD50 (opened)^24h (D. rerio embryos [2]; value ± STD) [µg/mL]	LD50(closed)^24h/LD50(open)^24h ratio (D. rerio embryos [2])	LD50 (closed)^24h (D. rerio embryos [2]; [3]) [µg/mL]	LD50 (closed)^24h (D. rerio embryos [2]; measurement performed once, STD not calculated)
CC(C)C[C@@H]1NC(=O)[C@H](CCCN)NC(=O)[C@H](C(C)C)NC(=O)[C@@H]2CCCN2C(=O)[C@@H](Cc2ccccc2)NC(=O)[C@H](CC(C)C)NC(=O)[C@H](CCCN)NC(=O)[C@H](C(C)C)NC(=O)[C@@H]2CCCN2C(=O)[C@@H](Cc2ccccc2)NC1=O [Peptide 1, gramicidin S, reference compound] (cyclo(L[dF]PV[Orn]L[dF]PV[Orn]))	2.8 ± 2.7	2.0 ± 3.0	2.4 ± 0.2					
Cc1sc2cc1C1=C(CCC1)c1cc(sc1C)C(=O)[C@@H]1CCCN1C(=O)[C@H](C)NC(=O)[C@H](CCCN)NC(=O)[C@H](C(C)C)NC(=O)[C@@H]1CCCN1C(=O)[C@@H](Cc1ccccc1)NC(=O)[C@H](CC(C)C)NC(=O)[C@H](CCCN)NC(=O)[C@H](C(C)C)NC2=O [Peptide 3]	9.3 ± 7.8	4.8 ± 3.9	4.7 ± 0.1	9.5 ± 1.3	6.2 ± 0.6	6.6	31.1 ± 4.2	
Cc1sc2cc1C1=C(CCC1)c1cc(sc1C)C(=O)[C@@H]1CCCN1C(=O)[C@H](C)NC(=O)[C@H](CCCN)NC(=O)[C@H](C(C)C)NC(=O)[C@@H]1CCCN1C(=O)[C@@H](Cc1ccccc1)NC(=O)[C@H](CC(C)C)NC(=O)[C@H](CCCN)NC(=O)[C@H](C)NC2=O [Peptide 4] (A[Orn]L[dF]PV[Orn]A; linker N-C via X2)	69.8 ± 10.5	40.6 ± 11.2	19.0 ± 1.3	51.0 ± 7.7	12.9 ± 1.9	10.4		
Cc1sc2cc1C1=C(CCC1)c1cc(sc1C)C(=O)[C@@H]1CCCN1C(=O)[C@H](CC(C)C)NC(=O)[C@H](CCCN)NC(=O)[C@H](C(C)C)NC(=O)[C@@H]1CCCN1C(=O)[C@@H](Cc1ccccc1)NC(=O)[C@H](CC(C)C)NC(=O)[C@H](CCCN)NC(=O)[C@H](CCCN)NC2=O [Peptide 5]	4.8 ± 2.2	2.8 ± 1.9	3.3 ± 0.7	8.1 ± 1.0	5.3 ± 0.5	2.5	8.1 ± 1.0	
Cc1sc2cc1C1=C(CCC1)c1cc(sc1C)C(=O)[C@@H]1CCCN1C(=O)[C@H](C(C)C)NC(=O)[C@H](CCCN)NC(=O)[C@H](C(C)C)NC(=O)[C@@H]1CCCN1C(=O)[C@@H](Cc1ccccc1)NC(=O)[C@H](C(C)C)NC(=O)[C@H](CCCN)NC(=O)[C@H]([C@@H](C)O)NC2=O [Peptide 6] (T[Orn]V[dF]PV[Orn]V; linker N-C via X2)	30.8 ± 15.0	13.2 ± 13.3	8.6 ± 0.0	20.6 ± 1.7	6.3 ± 2.3	22.9		
Cc1sc2cc1C1=C(CCC1)c1cc(sc1C)C(=O)[C@@H]1CCCN1C(=O)[C@H](C(C)C)NC(=O)[C@H](CCCN)NC(=O)[C@H](C(C)C)NC(=O)[C@@H]1CCCN1C(=O)[C@@H](Cc1ccccc1)NC(=O)[C@H](C(C)C)NC(=O)[C@H](CCCN)NC(=O)[C@H](CC(=O)NC(C)C)NC2=O [Peptide 7] (D(NHiPr)[Orn]V[dF]PV[Orn]V; linker N-C via X2)	15.9 ± 4.3	8.7 ± 9.1	5.8 ± 0.4	18.2 ± 4.6	3.0 ± 2.5	45.9		
Cc1sc2cc1C1=C(CCC1)c1cc(sc1C)C(=O)[C@@H]1CCCN1C(=O)[C@H](C(C)C)NC(=O)[C@H](CCCN)NC(=O)[C@H](C(C)C)NC(=O)[C@@H]1CCCN1C(=O)[C@@H](Cc1ccccc1)NC(=O)[C@H](C(C)C)NC(=O)[C@H](CCCN)NC(=O)[C@H](CCNC(=O)C(C)C)NC2=O [Peptide 8] ([Dab](Isobutyryl)[Orn]V[dF]PV[Orn]V; linker N-C via X2)	12.0 ± 0.8	5.7 ± 0.4	3.9 ± 1.5	9.6 ± 5.6	3.0 ± 2.7	121 and 121.2		
CC[C@H](C)[C@@H]1NC(=O)c2cc(c(C)s2)C2=C(CCC2)c2cc(sc2C)C(=O)[C@@H]2CCCN2C(=O)[C@H](CC(C)C)NC(=O)[C@H](CCCN)NC(=O)[C@H]([C@@H](C)CC)NC(=O)[C@@H]2CCCN2C(=O)[C@H]2CCCN2C(=O)[C@H](CC(C)C)NC(=O)[C@H](CCCN)NC1=O [Peptide 9] (I[Orn]L[dP]PI[Orn]L; linker N-C via X2)	2.0 ± 1.1	2.1 ± 0.8	1.6 ± 0.3	2.2 ± 0.5	0.8 ± 0.1	5.7	9.1 ± 2.7	
CC[C@H](C)[C@@H]1NC(=O)c2cc(c(C)s2)C2=C(CCC2)c2cc(sc2C)C(=O)[C@@H]2CCCN2C(=O)[C@H]([C@@H](C)CC)NC(=O)[C@H](CCCN)NC(=O)[C@H](CC(C)C)NC(=O)[C@H](CC(C)C)N(C)C(=O)[C@@H](Cc2ccccc2)NC(=O)[C@H]([C@@H](C)CC)NC(=O)[C@H](CCCN)NC1=O [Peptide 10] (I[Orn]I[dF][NMeL]L[Orn]I; linker N-C via X2)	1.3 ± 1.5	1.0 ± 0.6	1.0 ± 0.6	2.2 ± 1.0	1.3 ± 1.5	9.5	9.5 ± 0.1	
Cc1sc2cc1C1=C(CCC1)c1cc(sc1C)C(=O)[C@@H]1CCCN1C(=O)[C@H](C(C)C)NC(=O)[C@H](CCCN)NC(=O)[C@H](C(C)C)NC(=O)[C@@H]1CCCN1C(=O)[C@@H](Cc1ccccc1)NC(=O)[C@H](C(C)C)NC(=O)[C@H](CCCN)NC(=O)[C@H]([C@H](O)C(C)C)NC2=O [Peptide 12] ([Leu(3R-OH)][Orn]V[dF]PV[Orn]V; linker N-C via X2)	9.2 ± 1.1	6.7 ± 0.4	3.6 ± 0.5	6.2 ± 0.0	2.1 ± 1.0	21.4	77.0 ± 19.4	
Cc1sc2cc1C1=C(CCC1)c1cc(sc1C)C(=O)[C@@H]1CCCN1C(=O)[C@H](C(C)C)NC(=O)[C@H](CCCN)NC(=O)[C@H]([C@H](O)C(C)C)NC(=O)[C@@H]1CCCN1C(=O)[C@@H](Cc1ccccc1)NC(=O)[C@H](C(C)C)NC(=O)[C@H](CCCN)NC(=O)[C@H](C(C)C)NC2=O [Peptide 13] (V[Orn]V[dF]P[Leu(3R-OH)][Orn]V; linker N-C via X2)	4.8 ± 3.8	4.3 ± 3.8	2.2 ± 1.0	6.4 ± 0.4	3.4 ± 0.5	20.5		45.0^b µg/mL
Cc1sc2cc1C1=C(CCC1)c1cc(sc1C)C(=O)[C@@H]1CCCN1C(=O)[C@H]([C@H](O)C(C)C)NC(=O)[C@H](CCCN)NC(=O)[C@H](C(C)C)NC(=O)[C@@H]1CCCN1C(=O)[C@@H](Cc1ccccc1)NC(=O)[C@H](C(C)C)NC(=O)[C@H](CCCN)NC(=O)[C@H](C(C)C)NC2=O [Peptide 14]	8.1 ± 2.0	6.2 ± 0.7	2.0 ± 0.0	9.1 ± 4.2	4.6 ± 2.0	25.2	50.4 ± 27.2	
